{
  "source": "PubChem BioAssay AID2060905",
  "about": "(Molecular Pharmacology Branch, DTP, NCI, 2025);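 further: spheroids exposed to agents for seven days before readout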;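 on viability, T/C: luminescence viability as percent of DMSO vehicle control wells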",
  "system": "282377-053-R-J1-PDC complex spheroid viability",
  "experiment": "Anticancer human tumor 282377-053-R-J1-PDC patient-derived colon adenocarcinoma cell line growth inhibition [RAS]",
  "details": "for IC50: curve of first compound; for viability, T/C: stronger effect = lower value",
  "how_it_was_run": "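Multi-cell-type spheroids: tumor cells plus HUVEC endothelial cells and mesenchymal stem cells. RAS-pathway inhibitors were combined with targeted agents, each dosed in half-log steps down from clinical Cmax, or from 10 microM when Cmax was unknown.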",
  "key": {"[1]": {"details": "second compound 0.0316 µM, first compound 0.0316 µM"}, "[2]": {"details": "second compound 0.0316 µM, first compound 0.1 µM"}, "[3]": {"details": "second compound 0.0316 µM, first compound 0.316 µM"}, "[4]": {"details": "second compound 0.0316 µM, first compound 1 µM"}, "[5]": {"details": "second compound 0.1 µM, first compound 0.0316 µM"}, "[6]": {"details": "second compound 0.1 µM, first compound 0.1 µM"}, "[7]": {"details": "second compound 0.1 µM, first compound 0.316 µM"}, "[8]": {"details": "second compound 0.1 µM, first compound 1 µM"}, "[9]": {"details": "second compound 0.316 µM, first compound 0.0316 µM"}, "[10]": {"details": "second compound 0.316 µM, first compound 0.1 µM"}, "[11]": {"details": "second compound 0.316 µM, first compound 0.316 µM"}, "[12]": {"details": "second compound 0.316 µM, first compound 1 µM"}, "[13]": {"details": "second compound 1 µM, first compound 0.0316 µM"}, "[14]": {"details": "second compound 1 µM, first compound 0.1 µM"}, "[15]": {"details": "second compound 1 µM, first compound 0.316 µM"}, "[16]": {"details": "second compound 1 µM, first compound 1 µM"}, "[17]": {"details": "second compound 3.16 µM, first compound 0.0316 µM"}, "[18]": {"details": "second compound 3.16 µM, first compound 0.1 µM"}, "[19]": {"details": "second compound 3.16 µM, first compound 0.316 µM"}, "[20]": {"details": "second compound 3.16 µM, first compound 1 µM"}, "[21]": {"details": "second compound 10 µM, first compound 0.0316 µM"}, "[22]": {"details": "second compound 10 µM, first compound 0.1 µM"}, "[23]": {"details": "second compound 10 µM, first compound 0.316 µM"}, "[24]": {"details": "second compound 10 µM, first compound 1 µM"}},
  "data": [
    {"smiles": "CC(=O)OC12COC1CC(O)C1(C)C(=O)C(O)C3=C(C)C(OC(=O)C(O)C(NC(=O)OC(C)(C)C)c4ccccc4)CC(O)(C(OC(=O)c4ccccc4)C21)C3(C)C", "note": "(centres undefined) + C#Cc1c(F)ccc2cc(O)cc(-c3ncc4c(N5CC6CCC(C5)N6)nc(OCC56CCCN5CC(F)C6)nc4c3F)c12", "values": [
      {"measurement": "IC50", "setting": "second compound 0.0316 µM", "value": "< 31.6", "unit": "nM"},
      {"measurement": "IC50", "setting": "second compound 0.1 µM", "value": "< 31.6", "unit": "nM"},
      {"measurement": "IC50", "setting": "second compound 0.316 µM", "value": "< 31.6", "unit": "nM"},
      {"measurement": "IC50", "setting": "second compound 1 µM", "value": "< 31.6", "unit": "nM"},
      {"measurement": "IC50", "setting": "second compound 3.16 µM", "value": "< 31.6", "unit": "nM"},
      {"measurement": "IC50", "setting": "second compound 10 µM", "value": "< 31.6", "unit": "nM"},
      {"measurement": "viability, T/C", "setting": "[1]", "value": 21.9, "unit": "%"},
      {"measurement": "viability, T/C", "setting": "[2]", "value": 20.5, "unit": "%"},
      {"measurement": "viability, T/C", "setting": "[3]", "value": 23.9, "unit": "%"},
      {"measurement": "viability, T/C", "setting": "[4]", "value": 29.7, "unit": "%"},
      {"measurement": "viability, T/C", "setting": "second compound 0.0316 µM, first compound 3.16 µM", "value": 43.1, "unit": "%"},
      {"measurement": "viability, T/C", "setting": "second compound 0.0316 µM, first compound 10 µM", "value": 52.1, "unit": "%"},
      {"measurement": "viability, T/C", "setting": "[5]", "value": 25.4, "unit": "%"},
      {"measurement": "viability, T/C", "setting": "[6]", "value": 23.1, "unit": "%"},
      {"measurement": "viability, T/C", "setting": "[7]", "value": 23.4, "unit": "%"},
      {"measurement": "viability, T/C", "setting": "[8]", "value": 28.7, "unit": "%"},
      {"measurement": "viability, T/C", "setting": "second compound 0.1 µM, first compound 3.16 µM", "value": 49.8, "unit": "%"},
      {"measurement": "viability, T/C", "setting": "second compound 0.1 µM, first compound 10 µM", "value": 69.4, "unit": "%"},
      {"measurement": "viability, T/C", "setting": "[9]", "value": 28.6, "unit": "%"},
      {"measurement": "viability, T/C", "setting": "[10]", "value": 24.7, "unit": "%"},
      {"measurement": "viability, T/C", "setting": "[11]", "value": 26.7, "unit": "%"},
      {"measurement": "viability, T/C", "setting": "[12]", "value": 30.2, "unit": "%"},
      {"measurement": "viability, T/C", "setting": "second compound 0.316 µM, first compound 3.16 µM", "value": 47.4, "unit": "%"},
      {"measurement": "viability, T/C", "setting": "second compound 0.316 µM, first compound 10 µM", "value": 67.2, "unit": "%"},
      {"measurement": "viability, T/C", "setting": "[13]", "value": 32.6, "unit": "%"},
      {"measurement": "viability, T/C", "setting": "[14]", "value": 25, "unit": "%"},
      {"measurement": "viability, T/C", "setting": "[15]", "value": 26.6, "unit": "%"},
      {"measurement": "viability, T/C", "setting": "[16]", "value": 33, "unit": "%"},
      {"measurement": "viability, T/C", "setting": "second compound 1 µM, first compound 3.16 µM", "value": 60.6, "unit": "%"},
      {"measurement": "viability, T/C", "setting": "second compound 1 µM, first compound 10 µM", "value": 61.5, "unit": "%"},
      {"measurement": "viability, T/C", "setting": "[17]", "value": 27.9, "unit": "%"},
      {"measurement": "viability, T/C", "setting": "[18]", "value": 29.2, "unit": "%"},
      {"measurement": "viability, T/C", "setting": "[19]", "value": 31.4, "unit": "%"},
      {"measurement": "viability, T/C", "setting": "[20]", "value": 39.6, "unit": "%"},
      {"measurement": "viability, T/C", "setting": "second compound 3.16 µM, first compound 3.16 µM", "value": 58.5, "unit": "%"},
      {"measurement": "viability, T/C", "setting": "second compound 3.16 µM, first compound 10 µM", "value": 66, "unit": "%"},
      {"measurement": "viability, T/C", "setting": "[21]", "value": 32.1, "unit": "%"},
      {"measurement": "viability, T/C", "setting": "[22]", "value": 31.8, "unit": "%"},
      {"measurement": "viability, T/C", "setting": "[23]", "value": 41.6, "unit": "%"},
      {"measurement": "viability, T/C", "setting": "[24]", "value": 49.3, "unit": "%"},
      {"measurement": "viability, T/C", "setting": "second compound 10 µM, first compound 3.16 µM", "value": 77.7, "unit": "%"},
      {"measurement": "viability, T/C", "setting": "second compound 10 µM, first compound 10 µM", "value": 78.7, "unit": "%"}
    ]},
    {"smiles": "Nc1ccn(C2OC(CO)C(O)C2(F)F)c(=O)n1", "note": "(centres undefined) + C#Cc1c(F)ccc2cc(O)cc(-c3ncc4c(N5CC6CCC(C5)N6)nc(OCC56CCCN5CC(F)C6)nc4c3F)c12", "values": [
      {"measurement": "IC50", "setting": "second compound 0.0316 µM", "value": 633, "unit": "nM"},
      {"measurement": "IC50", "setting": "second compound 0.1 µM", "value": 251, "unit": "nM"},
      {"measurement": "IC50", "setting": "second compound 0.316 µM", "value": 440, "unit": "nM"},
      {"measurement": "IC50", "setting": "second compound 1 µM", "value": 258, "unit": "nM"},
      {"measurement": "IC50", "setting": "second compound 3.16 µM", "value": 544, "unit": "nM"},
      {"measurement": "IC50", "setting": "second compound 10 µM", "value": "> 1000", "unit": "nM"},
      {"measurement": "viability, T/C", "setting": "second compound 0.0316 µM, first compound 0.00316 µM", "value": 133, "unit": "%"},
      {"measurement": "viability, T/C", "setting": "second compound 0.0316 µM, first compound 0.01 µM", "value": 117, "unit": "%"},
      {"measurement": "viability, T/C", "setting": "[1]", "value": 85.4, "unit": "%"},
      {"measurement": "viability, T/C", "setting": "[2]", "value": 79.5, "unit": "%"},
      {"measurement": "viability, T/C", "setting": "[3]", "value": 59, "unit": "%"},
      {"measurement": "viability, T/C", "setting": "[4]", "value": 43.1, "unit": "%"},
      {"measurement": "viability, T/C", "setting": "second compound 0.1 µM, first compound 0.00316 µM", "value": 96, "unit": "%"},
      {"measurement": "viability, T/C", "setting": "second compound 0.1 µM, first compound 0.01 µM", "value": 89.7, "unit": "%"},
      {"measurement": "viability, T/C", "setting": "[5]", "value": 101, "unit": "%"},
      {"measurement": "viability, T/C", "setting": "[6]", "value": 76.8, "unit": "%"},
      {"measurement": "viability, T/C", "setting": "[7]", "value": 44.6, "unit": "%"},
      {"measurement": "viability, T/C", "setting": "[8]", "value": 37.9, "unit": "%"},
      {"measurement": "viability, T/C", "setting": "second compound 0.316 µM, first compound 0.00316 µM", "value": 115, "unit": "%"},
      {"measurement": "viability, T/C", "setting": "second compound 0.316 µM, first compound 0.01 µM", "value": 92.5, "unit": "%"},
      {"measurement": "viability, T/C", "setting": "[9]", "value": 99.4, "unit": "%"},
      {"measurement": "viability, T/C", "setting": "[10]", "value": 77, "unit": "%"},
      {"measurement": "viability, T/C", "setting": "[11]", "value": 51.1, "unit": "%"},
      {"measurement": "viability, T/C", "setting": "[12]", "value": 42.3, "unit": "%"},
      {"measurement": "viability, T/C", "setting": "second compound 1 µM, first compound 0.00316 µM", "value": 100, "unit": "%"},
      {"measurement": "viability, T/C", "setting": "second compound 1 µM, first compound 0.01 µM", "value": 101, "unit": "%"},
      {"measurement": "viability, T/C", "setting": "[13]", "value": 107, "unit": "%"},
      {"measurement": "viability, T/C", "setting": "[14]", "value": 69.6, "unit": "%"},
      {"measurement": "viability, T/C", "setting": "[15]", "value": 51.3, "unit": "%"},
      {"measurement": "viability, T/C", "setting": "[16]", "value": 40.2, "unit": "%"},
      {"measurement": "viability, T/C", "setting": "second compound 3.16 µM, first compound 0.00316 µM", "value": 89.8, "unit": "%"},
      {"measurement": "viability, T/C", "setting": "second compound 3.16 µM, first compound 0.01 µM", "value": 86, "unit": "%"},
      {"measurement": "viability, T/C", "setting": "[17]", "value": 89.1, "unit": "%"},
      {"measurement": "viability, T/C", "setting": "[18]", "value": 73.1, "unit": "%"},
      {"measurement": "viability, T/C", "setting": "[19]", "value": 56.6, "unit": "%"},
      {"measurement": "viability, T/C", "setting": "[20]", "value": 43.3, "unit": "%"},
      {"measurement": "viability, T/C", "setting": "second compound 10 µM, first compound 0.00316 µM", "value": 99.2, "unit": "%"},
      {"measurement": "viability, T/C", "setting": "second compound 10 µM, first compound 0.01 µM", "value": 99.3, "unit": "%"},
      {"measurement": "viability, T/C", "setting": "[21]", "value": 92.8, "unit": "%"},
      {"measurement": "viability, T/C", "setting": "[22]", "value": 69.8, "unit": "%"},
      {"measurement": "viability, T/C", "setting": "[23]", "value": 62.5, "unit": "%"},
      {"measurement": "viability, T/C", "setting": "[24]", "value": 54.5, "unit": "%"}
    ]}
  ]
}
